Results as given in patent US6555328B1, “Screening methods for altering circadian rhythms and for human casein kinase I δ and/or ε phosphorylation of human clock proteins, period 1, -2 and -3” (Aventis Pharmaceuticals Inc., priority 1999, dated 2003).

What was measured:
Format in all cases: cell-based
[1] = molecular target: hCKIε phosphorylation of hPER1 (Homo sapiens, UniProt P49674); assay: Treatment of transfected cells with hCKIε inhibitor: hPER1 phosphorylation
Source text: (§1) Furthermore, like hCKIε and hPER1, HCKIε co-immunoprecipitates with transfected hPER2. Treatment of transfected cells with the hCKIε inhibitor, CKI-7, results in a decrease of hPER1 and hPER2 phosphorylation. Pulse/chase studies reveal that increased phosphorylation of hPER2 by transfected hCKIε caused hPER2 to be degraded.

[2] = molecular target: hCKIε phosphorylation of hPER2 (Homo sapiens, UniProt P49674); assay: Treatment of transfected cells with hCKIε inhibitor: hPER2 phosphorylation
Sequence of hCKIε phosphorylation of hPER2 (P49674 whole entry): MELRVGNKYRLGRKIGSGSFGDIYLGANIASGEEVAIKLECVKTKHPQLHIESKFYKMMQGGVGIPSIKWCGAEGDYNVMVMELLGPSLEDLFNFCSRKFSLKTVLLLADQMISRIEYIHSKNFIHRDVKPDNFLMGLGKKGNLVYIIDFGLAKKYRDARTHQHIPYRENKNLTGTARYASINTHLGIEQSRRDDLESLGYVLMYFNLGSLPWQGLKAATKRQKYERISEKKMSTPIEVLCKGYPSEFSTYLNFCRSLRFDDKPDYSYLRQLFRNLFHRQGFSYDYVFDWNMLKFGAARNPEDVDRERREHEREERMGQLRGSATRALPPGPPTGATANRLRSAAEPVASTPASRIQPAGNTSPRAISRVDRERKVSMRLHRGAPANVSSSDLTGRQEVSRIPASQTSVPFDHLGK
Source text: as §1

[3] = system: rat PER1 oscillation in Rat1 fibroblast or Rat SCN cells; assay: PER1 mRNA oscillation after serum shock by TaqMan RT-PCR; settings: 10 uM, FIG. 10/11
Procedure: To test the effect of CKI inhibitors in altering rat PER1 oscillation by quantitative PCR using TaqMan RT-PCR (Perkin Elmer Biosystems), rat-1 fibriblasts are grown in Dulbecco's modified Eagle medium supplimented with 5% fetal calf serum and a mixture of penicillin-streptomycin-glutatamine. SCN cells are grown in Dulbecco's Minimum Eagle medium supplimented with 10% fetal calf serum penicillin-streptomycin-glutamine and 2% glucose. Approximately 5×10^5 cells are plated in 10 cm petri dishes 3-5 days prior to the experiment. Once the plates are confluent, which is designated as time=0, the medium is exchanged with serum rich medium, i.e. serum containing 50% horse serum. After 2 hours of the serum shock in 50% horse serum, this medium is replaced with serum-free medium. At indicated times, the dishes are washed with PBS and kept frozen at −80° C. until the extraction of whole cell mRNA. hCK1ε inhibitor or control is added at the time when serum-free medium is added.
Whole cell mRNA is extracted by means of RNeasy Midi kit or Rnleasy 96 kit (Qiagen) and Dnase treated (Ambion DNA-free). Quantitative PCR is performed with real-time Taq-Man technology (PE Biosystems) [C. A. Heid et al., Genomes Res. 6. M (1996)] and analysed on an ABI PRISM 7700 (T. Takumi et al., Genes Cells 4, 67: 1999). […] Ratios of rPer1 to rActin were calculated and normalized.

Sequence of hCKIε phosphorylation of hPER1 (P49674 whole entry): as above

| hPER1 phosphorylation [1] | hPER2 phosphorylation [2] | SMILES | effect on circadian rhythm of cells (rat Per1 mRNA levels) [3] |
| --- | --- | --- | --- |
| decrease | decrease | NCCNS(=O)(=O)c1ccc(Cl)c2ccncc12 [CKI-7] |  |
|  |  | CNCCC(Oc1ccc(C(F)(F)F)cc1)c1ccccc1 (stereo not drawn) [F, Fluoxitin] | do not alter the circadian rhythm of cells |
